# Data published in the supplement of paper PMC10307832.
# What was measured:
# Assay in all cases: relative viability (nuclei count vs DMSO), 5 days (fraction); higher = more cells survive
# [1] = tested on: ChaGo-K-1
# Procedure, shortened: (§1)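 Relative viability is defined as nuclei in treated wells over nuclei in vehicle wells. Duplicate plates were run and medians reported. Lung cancer cell lines in 1536-well plates were dosed by pin tool one day after seeding, with one drug or with a fixed anchor-drug dose plus five library-drug doses (not always all listed) in √10 steps, and nuclei were counted after 5 days.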
# [2] = tested on: NCI-H23
# Procedure, shortened: as §1
# [3] = tested on: NCI-H1793
# Procedure, shortened: as §1
# [4] = tested on: NCI-H2009
# Procedure, shortened: as §1
# [5] = tested on: NCI-H647
# Procedure, shortened: as §1
# [6] = tested on: SW 1573
# Procedure, shortened: as §1
# [7] = tested on: NCI-H441
# Procedure, shortened: as §1
# [8] = tested on: NCI-H2347
# Procedure, shortened: as §1
# [9] = tested on: EPLC-272H
# Procedure, shortened: as §1
# [10] = tested on: NCI-H2023
# Procedure, shortened: as §1
# [11] = tested on: HCC-44
# Procedure, shortened: as §1
# [12] = tested on: NCI-H2405
# Procedure, shortened: as §1
compound,measurement,setting,value
O=C(O)CCCCC(CCSCc1ccccc1)SCc1ccccc1 (stereo not drawn) [CPI-613] + O=C(CCCCCCC(=O)Nc1ccccc1)NO [Vorinostat] (partner 1 µM),relative viability,[1]; first compound 50 µM,0.744
same,relative viability,[1]; first compound 158.11 µM,0.518
same,relative viability,[1]; first compound 500 µM,0.301
same,relative viability,[2]; first compound 5 µM,0.612
same,relative viability,[2]; first compound 15.81 µM,0.586
same,relative viability,[2]; first compound 50 µM,0.591
same,relative viability,[2]; first compound 158.11 µM,0.168
same,relative viability,[2]; first compound 500 µM,0.0015
same,relative viability,[3]; first compound 5 µM,0.781
same,relative viability,[3]; first compound 15.81 µM,0.559
same,relative viability,[3]; first compound 50 µM,0.754
same,relative viability,[3]; first compound 158.11 µM,0.424
same,relative viability,[3]; first compound 500 µM,0.0086
same,relative viability,[4]; first compound 5 µM,0.726
same,relative viability,[4]; first compound 15.81 µM,0.672
same,relative viability,[4]; first compound 50 µM,0.657
same,relative viability,[4]; first compound 158.11 µM,0.152
same,relative viability,[4]; first compound 500 µM,0.0308
same,relative viability,[5]; first compound 5 µM,0.598
same,relative viability,[5]; first compound 15.81 µM,0.568
same,relative viability,[5]; first compound 50 µM,0.303
same,relative viability,[5]; first compound 158.11 µM,0.0385
same,relative viability,[5]; first compound 500 µM,0.014
same,relative viability,[6]; first compound 5 µM,0.749
same,relative viability,[6]; first compound 15.81 µM,0.635
same,relative viability,[6]; first compound 50 µM,0.456
same,relative viability,[6]; first compound 158.11 µM,0.165
same,relative viability,[6]; first compound 500 µM,0.0536
same,relative viability,[7]; first compound 5 µM,0.656
same,relative viability,[7]; first compound 15.81 µM,0.789
same,relative viability,[7]; first compound 50 µM,0.717
same,relative viability,[7]; first compound 158.11 µM,0.437
same,relative viability,[7]; first compound 500 µM,0.0026
same,relative viability,[8]; first compound 5 µM,0.513
same,relative viability,[8]; first compound 15.81 µM,0.494
same,relative viability,[8]; first compound 50 µM,0.596
same,relative viability,[8]; first compound 158.11 µM,0.387
same,relative viability,[8]; first compound 500 µM,0.235
same,relative viability,[9]; first compound 5 µM,0.509
same,relative viability,[9]; first compound 15.81 µM,0.406
same,relative viability,[9]; first compound 50 µM,0.268
same,relative viability,[9]; first compound 158.11 µM,0.0975
same,relative viability,[9]; first compound 500 µM,0.0196
same,relative viability,[10]; first compound 5 µM,0.537
same,relative viability,[10]; first compound 15.81 µM,0.475
same,relative viability,[10]; first compound 50 µM,0.572
same,relative viability,[10]; first compound 158.11 µM,0.0274
same,relative viability,[10]; first compound 500 µM,0.007
same,relative viability,[11]; first compound 5 µM,1.01
same,relative viability,[11]; first compound 15.81 µM,1.11
same,relative viability,[11]; first compound 50 µM,1.08
same,relative viability,[11]; first compound 158.11 µM,0.579
same,relative viability,[11]; first compound 500 µM,0.265
same,relative viability,[12]; first compound 5 µM,1.09
same,relative viability,[12]; first compound 15.81 µM,0.79
same,relative viability,[12]; first compound 50 µM,0.787
same,relative viability,[12]; first compound 158.11 µM,0.569
same,relative viability,[12]; first compound 500 µM,0.468
